Seven compounds from US9247742B2 (priority 2012, dated 2016) can be followed below.

The test system of experiment [1] is Magnaporthe oryzae. It counts as in vivo. To be noted: 1-day curative/protective; for B % DC: component B alone; for A % DC: component A (777) alone.
The test system of experiment [2] is Magnaporthe oryzae. It counts as in vivo. To be noted: 1-day protective; for B % DC: component B alone; for A % DC: component A (777) alone.

Read-outs that look alike come from different tables or passages of the source.

On to `Cc1cccc2sc3nncn3c12` [Tricyclazole, 5-methyl-1,2,4-triazolo[3,4-b]benzothiazole], for which the “B % DC” value in the experiment on Magnaporthe oryzae [1] (Rate B 0.1 ai/ppm) was 71%; with Magnaporthe oryzae [2] (Rate B 0.025 ai ppm) it was 0%; in the experiment on Magnaporthe oryzae [2] (Rate B 0.1 ai ppm), 0%; with Magnaporthe oryzae [2] (Rate B 0.4 ai ppm), 23%.

In the case of `C[C@H]1O[C@H](O[C@H]2[C@H](O)[C@@H](O)[C@@H](O)[C@H](O)[C@@H]2O)[C@@H](N)C[C@@H]1NC(=N)C(=O)O` [Kasugamycin, 3-O-[2-amino-4-[(carboxylminomethyl)amino]-2,3,4,6-tetradeoxy-α-D-arabino-hexopyranosyl]-D-chiro-inositol], the figures for the “B % DC” value with Magnaporthe oryzae [1] (Rate B 1.56 ai/ppm), in the experiment on Magnaporthe oryzae [1] (Rate B 6.25 ai/ppm) and with Magnaporthe oryzae [1] (Rate B 25 ai/ppm) were 69%, 68% and 74%, respectively.

`CCC1(C(=O)NC(C)c2ccc(Cl)cc2)C(C)C1(Cl)Cl` (stereo not drawn) [Carpropamid, 2,2-dichloro-N-[1-(4-chlorophenyl)ethyl]-1-ethyl-3-methylcyclopropanecarboxamide]: the “B % DC” value with Magnaporthe oryzae [2] (Rate B 0.1 ai ppm) worked out at 2%; in the experiment with Magnaporthe oryzae [2] (Rate B 0.4 ai ppm) it was 23%.

For `CO/C=C(/C(=O)OC)c1ccccc1Oc1cc(Oc2ccccc2C#N)ncn1` [Azoxystrobin, methyl (αE)-2-[[6-(2-cyanophenoxy)-4-pyrimidinyl]oxy]-α-(methoxymethylene)benzeneacetate], the “B % DC” value was 9% in the experiment on Magnaporthe oryzae [2] (Rate B 0.025 ai ppm), 19% with Magnaporthe oryzae [2] (Rate B 0.1 ai ppm), 30% with Magnaporthe oryzae [2] (Rate B 0.4 ai ppm) and 0% in the experiment with Magnaporthe oryzae [2] (Rate B 1.56 ai ppm).

As to `COc1ccnc(C(=O)N[C@H]2COC(=O)[C@H](Cc3ccccc3)[C@@H](OC(=O)C(C)C)[C@H](C)OC2=O)c1OCOC(=O)C(C)C` [compound 777], the “A % DC” value is recorded as 28% in the experiment with Magnaporthe oryzae [1] (Rate A 0.1 ai/ppm); 50% in the experiment on Magnaporthe oryzae [1] (Rate A 0.4 ai/ppm); 67% in the experiment with Magnaporthe oryzae [1] (Rate A 1.56 ai/ppm); 81% with Magnaporthe oryzae [1] (Rate A 6.25 ai/ppm); 0% with Magnaporthe oryzae [2] (Rate A 0.025 ai ppm); 21% in the experiment with Magnaporthe oryzae [2] (Rate A 0.1 ai ppm). The “A % DC” value with Magnaporthe oryzae [2] (Rate A 0.25 ai ppm) is reported as 0%; with Magnaporthe oryzae [2] (Rate A 0.4 ai ppm) it was 61%.

In the case of `C=CCOC1=NS(=O)(=O)c2ccccc21` [Probenazole, 3-(2-propenyloxy)-1,2-benzisothiazole 1,1-dioxide], the “B % DC” value in the experiment with Magnaporthe oryzae [1] (Rate B 3.12 ai/ppm) is recorded as 69%; in the experiment with Magnaporthe oryzae [1] (Rate B 12.5 ai/ppm), 78%.

Consider `O=C(Nc1ccccc1-c1ccc(Cl)cc1)c1cccnc1Cl` [Boscalid, 2-chloro-N-(4′-chloro[1,1′-biphenyl]-2-yl)-3-pyridinecarboxamide], for which the “B % DC” value in the experiment with Magnaporthe oryzae [1] (Rate B 400 ai/ppm) is 69%.
